Where “and” joins values, the source holds several entries; their conditions need not be identical. Equal values may be shown once.
Assays:
[1] = molecular target: T1, TRPM8 (Rattus norvegicus, UniProt Q8R455); experiment: Ca2+ microfluorography (Fluo-4 NW), menthol-induced Ca2+ signal in HEK-CR1-TRPM8 cells; assay type: cell-based; settings: for % Block TRPM8 50 µM: 50 µM compound; for % Block TRPM8 50 µM / IC50: agonist 100 µM menthol, HEK-CR1-TRPM8 cells
T1 construct: expressed in transfected cells
Protocol: (§1) All compounds were tested at two different concentrations (50 and 5 µM) on TRPM8 and TRPV1 channels stably expressed in HEK and SH-SY5Y cell lines, respectively. The agonist induced intracellular Ca^2+ signals were measured using a fluorescent Ca^2+ indicator, in the absence and in the presence of test compounds. […] The obtained results were compared to those of 68 (AMTB, TRPM8 antagonist) and ruthenium red (TRPV1 antagonist). The IC50 values for the assay on TRPM8 were also calculated.
(§2) For fluorescence assays, cells expressing TRP channels (SH-SY5Y-TRPV1 and HEKCR1-TRPM8) were seeded in 96-well plates (Corning Incorporated, Corning, NY) at a cell density of 40,000 cells 2 days before treatment. The day of treatment the medium was replaced with 100 µL of the dye loading solution Fluo-4 NW supplemented with probenecid 2.5 mM. Then the compounds dissolved in DMSO were added at the desired concentrations and the plate(s) were incubated at 37 °C in a humidified atmosphere of 5% CO2 for 60 minutes.
(§3) The fluorescence was measured using instrument settings appropriate for excitation at 485 nm and emission at 535 nm (POLARstar Omega BMG LABtech). […] The corresponding antagonist
(§4) (10 µM Ruthenium Red forTRPV1 and 10 µM 68 for TRPM8) was added for the blockade. The changes in fluorescence intensity were recorded during 15 cycles more. […] The blocking percentage was calculated as follow (Eq. 1):1 %TRPBlockedResponse=(1−Fo−Fi/FCo−FCi)∗100 where Fo is the fluorescence after the addition of menthol in the presence of the compound, Fi is the fluorescence before the addition of menthol in the presence of the compound, FCo is the fluorescence after the addition of menthol in the absence of the compound, FCi is the fluorescence before the addition of menthol in the absence of the compound. To guarantee that our results were useful we only used assays with a Z-factor higher than 0.5.
(§5) The statistical Z-factor to determine the quality of the HTS experiment as was calculated using the equation 2:2 Z‐factor=1−3∗(SDmax+SDmin)/Meanmax−Meanmin where: Meanmax is the mean of the maximum fluorescence in the presence of agonist, SDmax is the standard deviation of the maximum fluorescence in the presence of agonists, Meanmin is the mean of the maximum fluorescence in the presence of agonist and antagonist and SDmin is the standard deviation of the maximum fluorescence in the presence of agonist and antagonist.

[2] = molecular target: TRPV1 (Rattus norvegicus, UniProt O35433); experiment: Ca2+ microfluorography (Fluo-4 NW), capsaicin-induced Ca2+ signal in SH-SY5Y-TRPV1 cells; assay type: cell-based; settings: for % Block TRPV1 50 µM: 50 µM compound, agonist 10 µM capsaicin, SH-SY5Y-TRPV1 cells
Protocol: as §1, §2, §3, §4, §5

[3] = Kinetic solubility; assay type: physicochemical

TRPV1, sequence (O35433 whole entry): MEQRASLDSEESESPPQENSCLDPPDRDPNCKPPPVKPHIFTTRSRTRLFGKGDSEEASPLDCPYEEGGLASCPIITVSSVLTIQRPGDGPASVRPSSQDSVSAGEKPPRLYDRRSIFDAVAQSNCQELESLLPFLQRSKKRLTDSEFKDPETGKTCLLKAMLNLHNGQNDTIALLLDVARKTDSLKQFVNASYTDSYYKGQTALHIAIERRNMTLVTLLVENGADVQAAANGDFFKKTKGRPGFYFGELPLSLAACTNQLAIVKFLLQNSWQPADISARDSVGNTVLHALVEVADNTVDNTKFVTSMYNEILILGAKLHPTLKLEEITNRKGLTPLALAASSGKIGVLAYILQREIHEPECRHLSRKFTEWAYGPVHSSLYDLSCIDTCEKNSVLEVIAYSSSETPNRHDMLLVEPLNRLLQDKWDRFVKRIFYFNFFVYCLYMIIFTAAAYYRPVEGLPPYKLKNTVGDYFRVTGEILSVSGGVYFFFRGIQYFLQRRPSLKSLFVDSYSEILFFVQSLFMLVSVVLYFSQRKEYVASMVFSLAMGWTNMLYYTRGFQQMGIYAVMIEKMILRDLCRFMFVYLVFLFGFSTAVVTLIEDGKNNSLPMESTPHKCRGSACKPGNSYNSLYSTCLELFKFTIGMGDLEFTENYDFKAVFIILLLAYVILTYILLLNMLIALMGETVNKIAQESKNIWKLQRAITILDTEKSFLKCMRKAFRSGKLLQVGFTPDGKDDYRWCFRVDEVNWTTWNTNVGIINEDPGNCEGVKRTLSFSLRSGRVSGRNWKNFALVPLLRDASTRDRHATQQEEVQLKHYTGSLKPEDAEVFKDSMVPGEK
T1 sequence (Q8R455 whole entry): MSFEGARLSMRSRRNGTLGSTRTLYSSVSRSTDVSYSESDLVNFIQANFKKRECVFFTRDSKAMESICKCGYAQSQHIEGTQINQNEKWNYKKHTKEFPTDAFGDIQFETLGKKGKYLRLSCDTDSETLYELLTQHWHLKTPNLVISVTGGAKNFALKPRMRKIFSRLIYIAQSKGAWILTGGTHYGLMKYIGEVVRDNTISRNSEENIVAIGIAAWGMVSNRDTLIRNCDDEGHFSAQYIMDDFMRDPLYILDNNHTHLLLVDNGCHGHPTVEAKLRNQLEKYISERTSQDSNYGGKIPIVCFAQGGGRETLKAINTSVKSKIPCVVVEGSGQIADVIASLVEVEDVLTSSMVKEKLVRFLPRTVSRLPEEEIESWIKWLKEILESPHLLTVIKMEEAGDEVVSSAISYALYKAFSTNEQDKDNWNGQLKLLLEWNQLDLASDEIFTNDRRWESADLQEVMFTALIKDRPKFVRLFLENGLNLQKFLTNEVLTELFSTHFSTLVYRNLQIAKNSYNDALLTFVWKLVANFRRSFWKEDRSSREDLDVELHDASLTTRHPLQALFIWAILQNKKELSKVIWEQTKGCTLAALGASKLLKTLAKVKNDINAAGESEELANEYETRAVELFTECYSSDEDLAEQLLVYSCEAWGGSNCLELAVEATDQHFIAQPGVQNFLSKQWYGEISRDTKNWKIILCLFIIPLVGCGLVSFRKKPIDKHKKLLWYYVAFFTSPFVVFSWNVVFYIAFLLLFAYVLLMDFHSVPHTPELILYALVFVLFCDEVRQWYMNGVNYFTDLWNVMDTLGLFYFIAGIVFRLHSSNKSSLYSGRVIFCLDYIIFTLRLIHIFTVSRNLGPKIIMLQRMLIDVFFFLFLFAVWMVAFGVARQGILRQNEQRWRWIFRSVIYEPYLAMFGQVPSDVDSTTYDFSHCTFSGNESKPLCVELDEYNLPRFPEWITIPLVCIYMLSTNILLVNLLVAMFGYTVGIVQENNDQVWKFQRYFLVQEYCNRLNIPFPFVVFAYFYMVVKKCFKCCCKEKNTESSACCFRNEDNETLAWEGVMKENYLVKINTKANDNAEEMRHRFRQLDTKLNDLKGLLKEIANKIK

| Structure (SMILES) | % Block TRPM8 50 µM [1] | IC50 [1] [µM] | % Block TRPV1 50 µM [2] [%] | other results |
| --- | --- | --- | --- | --- |
| COC(=O)C1(C)CC(=O)N1CCC(NC(=O)OCc1ccccc1)C(=O)OC(C)(C)C (stereo not drawn) [Compound 44] | 21.3 ± 9.8% | 339.8 ± 1.4 | 26.8 ± 4.8 |  |
| COC(=O)C(CCCN1C(=O)CC1(Cc1ccccc1)C(=O)OC(C)(C)C)NC(=O)OCc1ccccc1 (stereo not drawn) [Compound 47] | 94.9 ± 19.7% |  | 49.8 ± 7.2 |  |
| CC(C)(C)OC(=O)NC(CCN1C(=O)CC1(Cc1ccccc1)C(=O)O)C(=O)O (stereo not drawn) [Compound 51] | 41.7 ± 8.7% | 74.1 ± 3.6 | 15.9 ± 4.3 |  |
| COC(=O)[C@H](CCCN1C(=O)CC1(Cc1ccccc1)C(=O)N[C@H](C)C(=O)OC)NC(=O)OCc1ccccc1 (stereo partly drawn) [Compound 59] | 36.2 ± 22.3% | 81.2 ± 4.8 | 19.4 ± 5.1 |  |
| CC(C)(C)OC(=O)NC(CCN1C(=O)CC1(Cc1ccccc1)C(=O)Nc1cccnc1)C(=O)Nc1cccnc1 (stereo not drawn) [Compound 66] | 64.6 ± 13.2% | 5.7 ± 3.4 | 22.8 ± 3.7 | Kinetic solubility ([3]; 1% DMSO): > 100 µM; Kinetic solubility ([3]; 5% DMSO): > 500 µM; improved solubility respect to 41 ([3]; ratio to compound 41): > 50 fold; improved solubility respect to 62 ([3]; ratio to compound 62): > 5 fold |
| CC(C)(C)OC(=O)N[C@@H](CCN1C(=O)C[C@]1(Cc1ccccc1)C(=O)Nc1ccncc1)C(=O)Nc1ccncc1 [Compound 67a] | 43.5 ± 9.8% | 38.1 ± 6.3 | 36.3 ± 10.8 |  |
| CC(C)(C)OC(=O)N[C@@H](CCN1C(=O)C[C@@]1(Cc1ccccc1)C(=O)Nc1ccncc1)C(=O)Nc1ccncc1 [Compound 67b] | 52.3 ± 7.6% | 7.26 ± 1.9 | 31.7 ± 4.5 |  |
| N.N.N.N.N.N.N.N.N.N.N.N.N.N.[Cl-].[Cl-].[Cl-].[Cl-].[Cl-].[Cl-].[O-2].[O-2].[Ru+3].[Ru+3].[Ru+4] [Ruthenium red, reference compound] |  |  | 100 | IC50 ([2]; printed in the TRPM8 IC50 column, footnote a: evaluated in TRPV1): 0.015 µM |
| CC1CCC(C(C)C)C(O)C1 (stereo not drawn) [menthol, reference compound] |  |  |  | EC50 ([1]; agonist, in our assay): 137 µM |

Further molecules by falling IC50 [1], results first:

| % Block TRPM8 50 µM [1] | IC50 [1] [µM] | % Block TRPV1 50 µM [2] [%] | Structure (SMILES) | other results |
| --- | --- | --- | --- | --- |
| 44.0 ± 16.5% | 70.4 ± 1.6 |  | COC(=O)[C@H](C)NC(=O)[C@H](CCN1C(=O)C[C@@]1(Cc1ccccc1)C(=O)N[C@@H](C)C(=O)OC)NC(=O)OC(C)(C)C [Compound 57b] |  |
| 40.9 ± 10.3% | 68.4 ± 8.5 | 20.6 ± 9.2 | CC(C)(C)OC(=O)NC(CCCN1C(=O)CC1(Cc1ccccc1)C(=O)O)C(=O)O (stereo not drawn) [Compound 53] |  |
| 49.2 ± 15.3% | 50.2 ± 1.3 |  | COC(=O)C(CCN1C(=O)CC1(Cc1ccccc1)C(=O)OC)NC(=O)OC(C)(C)C (stereo not drawn) [Compound 39] |  |
| 50.7 ± 9.5% | 48.4 ± 18.6 | 18.3 ± 16.2 | COC(=O)[C@H](C)NC(=O)C1(Cc2ccccc2)CC(=O)N1CCC[C@H](NC(=O)OCc1ccccc1)C(=O)OC (stereo partly drawn) [Compound 58] |  |
| 80.5 ± 15.8% | 36.8 ± 3.1 |  | COC(=O)C1(C)CC(=O)N1CC[C@H](NC(=O)OC(C)(C)C)C(=O)OCc1ccccc1 (stereo partly drawn) [Compound 43] |  |
| 71.3 ± 18.8% | 32.6 ± 1.8 |  | COC(=O)C(C)NC(=O)C1(Cc2ccccc2)CC(=O)N1CCCC(C(=O)OC)N(C)C(=O)OCc1ccccc1 (stereo not drawn) [Compound 60] |  |
| 78.3 ± 25.0% | 27 ± 1.7 |  | CNC(CCCN1C(=O)CC1(Cc1ccccc1)C(=O)NC(C)C(=O)OC)C(=O)OC (stereo not drawn) [Compound 61] |  |
| 70.4 ± 15.2% | 11.5 ± 2.7 | 26.9 ± 9.2 | CC(C)(C)OC(=O)NC(CCCN1C(=O)CC1(Cc1ccccc1)C(=O)NCc1ccccc1)C(=O)NCc1ccccc1 (stereo not drawn) [Compound 64] |  |
| 70.0 ± 18.6% | 7.1 ± 0.3 | 42.5 ± 16.2 | CC(C)(C)OC(=O)N[C@@H](CCN1C(=O)C[C@]1(Cc1ccccc1)C(=O)NCc1ccccc1)C(=O)NCc1ccccc1 [Compound 62a] | Kinetic solubility ([3]; 1% DMSO): 63 µM and 38 mg/L; Kinetic solubility ([3]; 5% DMSO): 92 µM and 55 mg/L |
| 100% | 7 ± 1 |  | Cc1cccc(COc2ccccc2C(=O)N(CCCN)Cc2cccs2)c1 [Compound 68, reference compound] |  |
| 75% | 6.8 ± 1.02 | 42.4 ± 5.3 | COC(=O)C1(Cc2ccccc2)CC(=O)N1CCC(NC(=O)OC(C)(C)C)C(=O)OCc1ccccc1 (stereo not drawn) [Compound 40] |  |
| 82% and 82.2 ± 29.0% | 6.2 ± 1.6 | 51.7 ± 15.4 | COC(=O)C1(Cc2ccccc2)CC(=O)N1CCC(NC(=O)OCc1ccccc1)C(=O)OC(C)(C)C (stereo not drawn) [Compound 42] |  |
| 86.5±19.6% | 1.7 ± 2.7 | 59.4 ± 10.5 | CC(C)(C)OC(=O)NC(CCCN1C(=O)CC1(Cc1ccccc1)C(=O)OCc1ccccc1)C(=O)OCc1ccccc1 (stereo not drawn) [Compound 46] | reduction of TRPM8 blockade activity compared with homologue 41 ([1]; longer N-alkyl chain, 46 versus 41): up to 4 fold |
